Each structure is given as a SMILES string.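 Grown in 96-well plates, cells were treated for 48 hours with each compound at five concentrations. Insufficient inhibition: endpoint recorded as highest concentration tested. GI50 marks 50% less growth.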 The source made the active and inactive calls. No stated cut-off is given here; in the data, active = GI50 up to about 1.1 µM and inactive = higher. Where a SMILES comes first, the peptide text is derived from it. Square brackets hold non-standard residues; d marks the D form. Peptide text beside a SMILES is read from it. The star is where a group is joined. * marks the point of attachment. Tyr(3-Br) = N[C@@H](Cc1ccc(O)c(Br)c1)C(=O)O; Boc = CC(C)(C)OC(=O)*

Results on eleven compounds are retold here after ChEMBL document CHEMBL1201862, “PubChem BioAssay data set” (2004).

Some test systems named below: RPMI-8226; COLO 205; SNB-19; M14; SF-268; KM12; TK-10; NCI-H226; SR; SK-MEL-28; HL-60; SK-MEL-5; OVCAR-3; SF-295; OVCAR-8; EKVX; SK-MEL-2; MDA-MB-231; MDA-MB-435; MOLT-4.
Common to all, as to assay: NCI tumour cell line growth inhibition, 48 h

For the compound `COc1ccccc1NC(=O)CSC(N)=O`, the GI50 in the test with RPMI-8226 is 39.4 µM (inactive); in the test with COLO 205, > 100 µM (inactive); in the test with SNB-19, > 100 µM (inactive); in the test on M14, 45.4 µM (inactive); in the test with SF-268, 53.8 µM (inactive); with KM12, 49.5 µM (inactive). For the same compound, the GI50 with TK-10 was > 100 µM (inactive); in the test with NCI-H226, 39.2 µM (inactive); with SR, 25.8 µM (inactive); in the test on SK-MEL-28, 48.1 µM (inactive); in the test with HL-60 it was 0.349 µM (active); with SK-MEL-5, 47.8 µM (inactive). In addition, the GI50 with OVCAR-3 was 57.8 µM (inactive); in the test with SF-295 it was 38.4 µM (inactive); with OVCAR-8, 68.2 µM (inactive); with EKVX it was 60.1 µM (inactive); in the test with SK-MEL-2 it was 22.9 µM (inactive).

`CCOC(=O)c1c[nH]c(C(=O)C=[N+]=[N-])c1C1CCN(CC)C1=S` (stereo not given): the GI50 with MDA-MB-231 was > 100 µM (inactive); in the test on RPMI-8226, > 100 µM (inactive); with COLO 205 it was 63.5 µM (inactive); in the test with SNB-19, > 100 µM (inactive); in the test on MDA-MB-435 it was > 100 µM (inactive); in the test on M14 it was > 100 µM (inactive). Besides, the GI50 in the test on SF-268, with KM12, in the test with TK-10, with MOLT-4, in the test with SK-MEL-28 and in the test on SK-MEL-5 was > 100 µM (inactive) throughout. For the same compound, the GI50 with OVCAR-3 is 94 µM (inactive); with SF-295, > 100 µM (inactive); in the test on OVCAR-8, > 100 µM (inactive); with EKVX it was > 100 µM (inactive); in the test on SK-MEL-2, > 100 µM (inactive).

As to `CC1(C)OC(C(C)(C)O)C(C(C)(C)O)O1` (stereo not given), the GI50 with MDA-MB-231, in the test with RPMI-8226, with COLO 205, in the test on SNB-19, in the test with M14 and in the test on SF-268 was > 100 µM (inactive) throughout. Moreover, the GI50 in the test with KM12, in the test on TK-10, in the test with NCI-H226, with MOLT-4, in the test on SR and in the test on SK-MEL-28 was > 100 µM (inactive) in each case. The GI50 with HL-60, in the test with SK-MEL-5, in the test with SF-295, with OVCAR-8, with EKVX and in the test on SK-MEL-2 was > 100 µM (inactive) throughout.

As for `O=S(=O)(c1ccccc1)c1nccs1`, the GI50 in the test on RPMI-8226, in the test with COLO 205, with SNB-19, in the test on M14, in the test on SF-268 and in the test with KM12 was > 100 µM (inactive) each time. Further, the GI50 in the test on TK-10, with NCI-H226, in the test on MOLT-4, in the test with SR, in the test on SK-MEL-28 and with HL-60 was > 100 µM (inactive) in each case. Also, the GI50 in the test with SK-MEL-5, in the test with OVCAR-3, in the test with SF-295, in the test with OVCAR-8, with EKVX and with SK-MEL-2 was > 100 µM (inactive) each time.

Consider `CCCc1nc(NC#N)nc(C(=O)NC23CC4CC(CC(C4)C2)C3)c1C`, for which the GI50 in the test on RPMI-8226, in the test with COLO 205, with SNB-19, in the test on M14, in the test on SF-268 and with KM12 was > 100 µM (inactive) throughout. Moreover, the GI50 with TK-10, in the test with NCI-H226, with MOLT-4, in the test on SR, in the test with SK-MEL-28 and with HL-60 was > 100 µM (inactive) throughout. Besides, the GI50 in the test on SK-MEL-5, in the test on OVCAR-3, in the test on SF-295, with OVCAR-8, in the test with EKVX and in the test on SK-MEL-2 was > 100 µM (inactive) each time.

In the case of `COc1cc(S(=O)(=O)N/N=C/C=C/c2ccccc2)c(OC)cc1NC(C)=O`, the GI50 in the test with RPMI-8226 was 19.1 µM (inactive); with COLO 205 it was 17.7 µM (inactive); in the test on SNB-19, > 100 µM (inactive); in the test on MDA-MB-435, 38.8 µM (inactive); with M14, 21.9 µM (inactive); in the test on SF-268, 35.4 µM (inactive). For the same compound, the GI50 was 42.3 µM (inactive) with KM12; 12.3 µM (inactive) with SR; 56.5 µM (inactive) with SK-MEL-28; 33 µM (inactive) in the test with HL-60; 3.73 µM (inactive) in the test with SK-MEL-5; 40.7 µM (inactive) with OVCAR-3. Further, the GI50 in the test with SF-295 is > 100 µM (inactive); in the test on OVCAR-8, 12.2 µM (inactive); with EKVX, 5.14 µM (inactive); in the test with SK-MEL-2 it was 47 µM (inactive).

As for `CC(C)(O)/C=C\P(C)(=O)c1ccccc1` (stereo not given), the GI50 with RPMI-8226 was 39.4 µM (inactive); in the test on COLO 205, > 100 µM (inactive); with SNB-19, > 100 µM (inactive); in the test with MDA-MB-435 it was > 100 µM (inactive); with M14, > 100 µM (inactive); in the test with SF-268 it was > 100 µM (inactive). In addition, the GI50 in the test with KM12, with TK-10, in the test on NCI-H226, with SR, in the test with SK-MEL-28 and in the test with SK-MEL-5 was > 100 µM (inactive) each time. The GI50 in the test on OVCAR-3, with SF-295, in the test on OVCAR-8, in the test on EKVX and with SK-MEL-2 was > 100 µM (inactive) each time.

With `NC1(C(=O)O)CCC(C(=O)O)CC1` (stereo not given), the GI50 with RPMI-8226, in the test on COLO 205, in the test with SNB-19, with M14, with SF-268 and with KM12 was > 100 µM (inactive) each time. In addition, the GI50 with TK-10, in the test with NCI-H226, in the test with MOLT-4, with SR, in the test on SK-MEL-28 and in the test on HL-60 was > 100 µM (inactive) in each case. The GI50 with SK-MEL-5, with OVCAR-3, with SF-295, in the test on OVCAR-8, in the test on EKVX and in the test with SK-MEL-2 was > 100 µM (inactive) in each case.

Consider `COc1ccccc1N1C(=O)C2C3c4ccccc4C(OC(C)=O)(c4ccccc43)C2C1=O` (stereo not given), for which the GI50 was > 100 µM (inactive) with MDA-MB-231; > 100 µM (inactive) in the test on RPMI-8226; > 100 µM (inactive) in the test with COLO 205; 17.1 µM (inactive) with SNB-19; > 100 µM (inactive) with M14; 30.8 µM (inactive) in the test on SF-268. In addition, the GI50 was 77.4 µM (inactive) in the test on KM12; > 100 µM (inactive) in the test on TK-10; > 100 µM (inactive) in the test with NCI-H226; > 100 µM (inactive) with MOLT-4; > 100 µM (inactive) with SR; 71.9 µM (inactive) in the test with SK-MEL-28. Further, the GI50 in the test on HL-60 was > 100 µM (inactive); with SK-MEL-5, > 100 µM (inactive); in the test on OVCAR-3, > 100 µM (inactive); in the test on SF-295, 78.7 µM (inactive); in the test on OVCAR-8, 43 µM (inactive); with EKVX, > 100 µM (inactive).

As to `COC(=O)C(Cc1c[nH]c2ccccc12)NC(=O)C(Cc1c[nH]c2ccccc12)NC(=O)C(Cc1c[nH]c2ccccc12)NC(=O)OC(C)(C)C` (stereo not drawn) (Boc-Trp-Trp-Trp-OMe; configuration not given here), the GI50 with MDA-MB-231 is 30.1 µM (inactive); in the test on RPMI-8226 it was 27.2 µM (inactive); in the test with COLO 205, 20.4 µM (inactive); in the test on SNB-19, 18.9 µM (inactive); in the test with M14, 37.3 µM (inactive); in the test with KM12, 21.5 µM (inactive). In addition, the GI50 in the test with TK-10 is 25.5 µM (inactive); in the test with NCI-H226 it was 16.5 µM (inactive); in the test on MOLT-4 it was 17.3 µM (inactive); in the test on SK-MEL-28, 17.7 µM (inactive); in the test on HL-60, 16.1 µM (inactive); in the test with SK-MEL-5 it was 47.9 µM (inactive). In addition, the figures for the GI50 in the test with OVCAR-8, in the test on EKVX and with SK-MEL-2 were 20.7 µM (inactive), 57 µM (inactive) and 17.3 µM (inactive), respectively.

Turning to `COC(=O)[C@H](Cc1ccc(O)c(Br)c1)NC(=O)[C@H](Cc1ccc(O)cc1)NC(=O)OC(C)(C)C` (Boc-Tyr-[Tyr(3-Br)]-OMe), the GI50 in the test on RPMI-8226 was 28.4 µM (inactive); with COLO 205 it was 39.9 µM (inactive); in the test with SNB-19 it was > 100 µM (inactive); in the test on MDA-MB-435, 23 µM (inactive); in the test on M14, 33.1 µM (inactive); in the test on SF-268 it was 48.3 µM (inactive). Further, the GI50 with KM12 is 40.6 µM (inactive); with TK-10, > 100 µM (inactive); in the test on NCI-H226, > 100 µM (inactive); in the test on MOLT-4 it was 48.2 µM (inactive); with SR, 44.6 µM (inactive); in the test on SK-MEL-28, 34.6 µM (inactive). Besides, the GI50 is 32.4 µM (inactive) in the test with HL-60; 20.7 µM (inactive) with OVCAR-3; > 100 µM (inactive) in the test on SF-295; 19.9 µM (inactive) with OVCAR-8; > 100 µM (inactive) with EKVX; 37 µM (inactive) in the test with SK-MEL-2.
